US20180280485A1, “THIORETINAMIDE COMPOSITIONS FOR THE APOPTOSIS OF MALIGNANT CELLS WHILE PREVENTING THE APOPTOSIS OF NORMAL CELLS AND RELATED METHODS” (priority 2017, published 2018)

Legend:
[1] = tested on: human adenocarcinoma cells; assay: Growth of cultured human adenocarcinoma cells (Example 7); assay type: cell-based; conditions: for cell growth (10^5): cell number day 4, 10^5 cells passaged day 0, no addition 7.4 ± 2.7; for cell growth (10^5) / cell growth (% of control): TR2Co/TR 30 mg/dL, DATS/NBS 1.0 mg/dL; for cell growth (% of control): day 4; for inhibition of growth of cultured human adenocarcinoma cells: each compound alone, Table 2
Method: Human adenocarcinoma cells were cultured in RPMI medium with added fetal bovine serum and antibiotics, as reported by McCully K S et al in Research Communications in Chemical Pathology and Pharmacology, 1992; 77: 125-128 and reviewed by Ariga T et al in Biofactors 2006; 26: 93-103. Equal numbers (10^5) of adenocarcinoma cells were trypsinized and passaged on day 0, and the cells were refed with media containing test compounds on days 1 and 3. Cell numbers were determined by trypsinization on day 4. Thioretinaco (TR2Co) and thioretinamide (TR) were synthesized, as previously described (McCully U.S. Pat. No. 4,618,685; McCully U.S. Pat. No. 4,925,931) and dissolved in absolute ethanol. Authentic diallyl trisulfide ([…]) and napabucasin (NBS) were solubilized in propylene glycol. Propylene glycol (PG) was added to the ethanol solutions of the test compounds, the ethanol was evaporated under reduced pressure at 37° C., and the resulting solutions in propylene glycol were added to the culture media.

[2] = tested on: Caenorhabtidis elegans; conditions: exposure to diallyl trisulfide; cited from earlier work
[3] = tested on: human colon carcinoma cells; conditions: in vitro; read-out: inhibitory concentration (IC50) against proliferation; cited from earlier work
[4] = tested on: Normal control cell lines; conditions: versus human leukemia and myeloma cell lines; cited from earlier work
[5] = tested on: human pancreatic adenocarcinoma cells; conditions: in vitro, cited from earlier work; for growth of cells: without cellular degeneration
[6] = tested on: normal fibroblasts; conditions: in vitro; cited from earlier work
[7] = Toxicity in animal tests or human trials; assay type: in vivo; conditions: 7.5 mg/70 kg/day to 300 mg/70 kg/day

Row | Molecule | cell growth (10^5) [1] | cell growth (% of control) [1] | inhibition of growth of cultured human adenocarcinoma cells [1] | increase of lifespan [2] | IC50 [3] [µM] | increase in concentration required to produce apoptosis and growth inhibition in normal control cell lines [4] [fold] | growth of cells [5] | lactate production [5] | growth and lactate production [6] | toxicity (weight loss, nausea, impairment of liver function, headache, skin lesions) [7]
1 | C=CCSSSCC=C [DATS, diallyl trisulfide, reference compound] | 2.7 ± 0.57 10^5 | 36 % of control | significantly inhibit growth | approximately 12% | 5 | – | – | – | – | –
2 | Cc1cc2c(o1)C(=O)c1ccccc1C2=O [FHQ3, 2-methyl-naphtho[2,3-b]furan-4,9 dione] | – | – | – | – | – | 10 | – | – | – | –
3 | O=C(O)Cc1cc2c(o1)C(=O)c1ccccc1C2=O [NBS, 2-carboxymethyl-naphtho[2,3-b]furan-4,9-dione, reference compound] | 2.3 ± 0.52 10^5 | 28 % of control | significantly inhibit growth | – | – | – | – | – | – | –
4 | CC1=C(/C=C/C(C)=C/C=C/C(C)=C/C(=O)NC2CCSC2=O)C(C)(C)CCC1 (centres unmarked) [TR, N-homocysteine thiolactonyl retinamide] | 1.4 ± 0.50 10^5 | 19 % of control | significantly inhibit growth | – | – | – | inhibited | increased | unaffected | no evidence of toxicity
5 | CC1=C(/C=C/C(C)=C/C=C/C(C)=C/CO)C(C)(C)CCC1 [retinol, reference compound] | – | – | – | – | – | – | – | – | – | no evidence of toxicity
6 | N-homocysteine thiolactonyl retinamido cobalamin [TR2Co] | 2.5 ± 0.82 10^5 | 33 % of control | significantly inhibit growth | – | – | – | inhibited | increased | unaffected | –
